Measurements taken from patent publication US20040146538A1, “Pharmaceutical composition for oral use comprising an active principle liable to undergo a large first intestinal passage effect” (Gattefosse Holding, priority 2001, published 2004).

System: human intestinal microsomes
Experiment: Stability of simvastatin in human intestinal microsomes (first intestinal passage effect)
Conditions: 1 mg/ml microsomes, 37° C., 12 μmol
Description: The test is carried out in vitro using human intestinal microsomes containing:
0.09 nmol/mg of cytochromes P450,
0.77 nmol/min/mg of cytochromes P450 3 A 4.
1 mg/ml of microsomes is then placed in contact:
with a regenerating system having the following composition:
followed by equilibration at 37° C. for 3 minutes.
100 μl aliquots are mixed with a solution of 400 μl of a 50/50 mixture of ice and acetonitrile at 0, 15, 30, 60, 120 and 180 minutes. Testosterone is tested in parallel as control component.
The conditions for carrying out the HPLC are as follows:
The mass spectrometer used is known under the reference PE SCIEX 150.

With `C[C@]12CC[C@H]3[C@@H](CCC4=CC(=O)CC[C@@]43C)[C@@H]1CC[C@@H]2O` [TESTOSTERONE, Testosterone] the Percentage remaining (simvastatin (or testosterone control) remaining, time 0 min) was 100%, the Percentage remaining (time 15 min) was “completely disappeared” and the Percentage remaining (time 180 min) was 0%.
